Legend:
Septoria tritici = assay: In vivo preventive test on Septoria tritici (wheat); conditions: 500 ppm of active ingredient; wheat plants, preventive spray; grading 24 days after contamination
Procedure: (§1) The active ingredients tested are prepared by homogenization in a mixture of acetone/tween/DMSO, and then diluted with water to obtain the desired active material concentration.
(§2) Wheat plants (“Scipion” variety), sown in starter cups on a 50/50 peat soil pozzolana substrate and grown at 22° C., are treated at the 1 leaf stage (10 cm height) by spraying with the active ingredient prepared as described above. Plants, used as controls, are treated with the mixture of acetone/tween/DMSO/water not containing the active material.
After 24 hours, the plants are contaminated by spraying the leaves with an aqueous suspension of cryopreserved Septoria tritici spores (500 000 spores per mL). The contaminated wheat plants are incubated for 72 hours at 18° C. and at 100% relative humidity, and then for 21 days at 90% relative humidity.
Grading (% of efficacy) is carried out 24 days after the contamination, in comparison with the control plants.
Under these conditions, good (at least 70%) to total protection is observed at a dose of 500 ppm of active ingredient with the following compounds from table J: […]

Puccinia recondita = assay: In vivo preventive test on Puccinia recondita (brown rust on wheat); conditions: 500 ppm of active ingredient; wheat plants, preventive spray; grading 12 days after contamination
Procedure: as §1, §2
(§3) After 24 hours, the plants are contaminated by spraying the leaves with an aqueous suspension of Puccinia recondita spores (100 000 spores per mL). The spores are collected from an infected plant and are suspended in water containing 2.5 mL/L of Tween 80 at 10%. The contaminated wheat plants are incubated for 24 hours at 20° C. and at 100% relative humidity, and then for 10 days at 20° C. and at 70-80% relative humidity.
(§4) Grading (% of efficacy) is carried out 12 days after the contamination, in comparison with the control plants.
Under these conditions, good (at least 70%) to total protection is observed at a dose of 500 ppm of active ingredient with the following compounds from table I: […]

Sphaerotheca fuliginea = assay: In vivo preventive test on Sphaerotheca fuliginea (powdery mildew on cucurbits); conditions: 500 ppm, gherkin plants, grading 12 days after contamination
Procedure: (§5) The active ingredients tested are prepared by homogenization in a mixture of acetone/tween/DMSO and then diluted with water to obtain the desired active material concentration.
Gherkin plants (“Vert petit de Paris” variety), sown in starter cups on a 50/50 peat soil-pozzolana substrate and grown at 24° C., are treated at the Z11 cotyledon stage by spraying with the active ingredient prepared as described above. Plants, used as controls, are treated with the mixture of acetone/tween/DMSO/water not containing the active material.
After 24 hours, the plants are contaminated by spraying the cotyledons with an aqueous suspension of Sphaerotheca fuliginea spores (100 000 spores per mL). The spores are collected from infected plants. The contaminated gherkin plants are incubated at about 20° C. and at 70-80% relative humidity.
as §4
Under these conditions, good (at least 70%) to total protection is observed at a dose of 500 ppm of active ingredient with the following compounds from table A: […]

Pyrenophora teres = assay: In vivo preventive test on Pyrenophora teres (barley); conditions: barley plants, grading 14 days after contamination
Procedure: as §1
Barley plants (“Plaisant” variety), sown in starter cups on a 50/50 peat soil pozzolana substrate and grown at 22° C., are treated at the 1 leaf stage (10 cm height) by spraying with the active ingredient prepared as described above. Plants, used as controls, are treated with the mixture of acetone/tween/DMSO/water not containing the active material.
After 24 hours, the plants are contaminated by spraying the leaves with an aqueous suspension of Pyrenophora teres spores (12 000 spores per mL). The spores are collected from a 12-day-old culture.
The contaminated barley plants are incubated for 48 hours at 20° C. and at 100% relative humidity, and then for 12 days at 20° C. at 70-80% relative humidity.
Grading (% of efficacy) is carried out 14 days after the contamination, in comparison with the control plants.
Under these conditions, good (at least 70%) to total protection is observed at a dose of 500 ppm of active ingredient with the following compounds from table H1: […]

Alternaria brassicae = assay: In vivo preventive test on Alternaria brassicae (leaf spot on radish); conditions: radish plants
Procedure: as §1
Radish plants (“Pernod Clair” variety), sown in starter cups on a 50/50 peat soil pozzolana substrate and grown at 17° C., are treated at the cotyledon stage by spraying with the active ingredient prepared as described above. Plants, used as controls, are treated with the mixture of acetone/tween/DMSO/water not containing the active material.
After 24 hours, the plants are contaminated by spraying the cotyledons with an aqueous suspension of Alternaria brassicae spores (50 000 spores per mL). The spores are collected from a 15-day-old culture.
The contaminated radish plants are incubated at 20° C. and at 100% relative humidity.
Grading (% of efficacy) is carried out 6 days after the contamination, in comparison with the control plants.
Under these conditions, high (at least 80%) to excellent (at least 90%) protection is observed at a dose of 500 ppm of active ingredient with the following compounds from table C1: […]

[1] = log P by HPLC on a reversed-phase column (C 18), EEC Directive 79/831 Annex V.A8; format: physicochemical; conditions: Table 1, HPLC C 18, 40° C., 0.1% aqueous formic acid and acetonitrile, several values = mixture of 2 or more isomers; for chromatographic logP: reversed-phase HPLC column (C 18)
Procedure: In table 1, the log P values were determined in accordance with EEC Directive 79/831 Annex V.A8 by HPLC (High Performance Liquid Chromatography) on a reversed-phase column (C 18), using the method described below:
Temperature: 40° C.; Mobile phases: 0.1% aqueous formic acid and acetonitrile; linear gradient from 10% acetonitrile to 90% acetonitrile.
Calibration was carried out using unbranched alkan-2-ones (comprising 3 to 16 carbon atoms) with known log P values (determination of the log P values by the retention times using linear interpolation between two successive alkanones). lambda-max-values were determined using UV-spectra from 200 nm to 400 nm and the peak values of the chromatographic signals.

Botrytis cinerea = assay: In vivo preventive test on Botrytis cinerea (grey mould), gherkin plants; conditions: 500 ppm of active ingredient, preventive spray, grading 4 to 5 days after contamination
Procedure: as §5
Gherkin plants (“Vert petit de Paris” variety), sown in starter cups on a 50/50 peat soil pozzolana substrate and grown at 24° C., are treated at the Z11 cotyledon stage by spraying with the active ingredient prepared as described above. Plants, used as controls, are treated with the mixture of acetone/tween/DMSO/water not containing the active material.
After 24 hours, the plants are contaminated by spraying the cotyledons with an aqueous suspension of cryopreserved Botrytis cinerea spores (50 000 spores per mL). The spores are suspended in a nutrient solution composed of 10 g/L of PDB, 50 g/L of D-Fructose, 2 g/L of NH4NO3 and 1 g/L of KH2PO4. The contaminated gherkin plants are incubated at 17° C. and at 90% relative humidity.
Grading (% of efficacy) is carried out 4 to 5 days after the contamination, in comparison with the control plants.
Under these conditions, good (at least 70%) to total protection is observed at a dose of 500 ppm of active ingredient with the following compounds from table F: […]

Uromyces appendiculatus = assay: In vivo preventive test on Uromyces appendiculatus (bean rust); conditions: bean plants
Procedure: as §1
as §3, with “of Uromyces appendiculatus” for “of Puccinia recondita”, “spores (150” for “spores (100”, “from” for “from an”, “infected plants” for “infected plant”, “contaminated bean” for “contaminated wheat”
Grading (% of efficacy) is carried out 11 days after the contamination, in comparison with the control plants.

[2] = 500 ppm of active ingredient, preventive spray
[3] = 500 ppm of active ingredient, preventive spray, grading 11 days after contamination (table K1)
[4] = dose 100 ppm, comparison with saturated analogues (table K2)
[5] = dose 500 ppm, comparison with saturated analogues (table K2)

Structure (SMILES)	Efficacy (Septoria tritici) [%]	Efficacy (Puccinia recondita) [%]	Efficacy (Sphaerotheca fuliginea) [%]	Efficacy (Pyrenophora teres; [2]) [%]	Efficacy (Alternaria brassicae; Table C1, 500 ppm, grading 6 days after contamination) [%]	Efficacy (Alternaria brassicae; Table C2, dose 100 ppm, 6 days after contamination) [%]	Efficacy (Alternaria brassicae; Table C2, dose 100 ppm, 6 days after contamination, listed as 1.32)	Efficacy (Alternaria brassicae; Table C2, dose 500 ppm, 6 days after contamination) [%]	Efficacy (Alternaria brassicae; Table C2, dose 500 ppm, 6 days after contamination, listed as 1.32)	logP [1]	Efficacy (Botrytis cinerea) [%]	Efficacy (Pyrenophora teres; Table H2, 100 ppm, preventive) [%]	Efficacy (Uromyces appendiculatus; [3]) [%]	Efficacy (Uromyces appendiculatus; [4]) [%]	Efficacy (Uromyces appendiculatus; [5]) [%]	chromatographic logP [1]
CC(c1ccccc1C1=CCCCC1)N(C(=O)c1c(C(F)F)nn(C)c1F)C1CC1 (racemic) [I.32]	100	98	100	97	98	98	at least 95%	98	at least 95%	4.61	–	–	–	–	–	–
O=C(c1ccsc1I)N(Cc1ccccc1C1=CCCCC1)C1CC1 [I.31]	–	–	–	–	–	–	–	–	–	5.22	100	–	–	–	–	–
Cn1nc(C(F)F)c(C(=O)N(Cc2ccccc2C2=CCCC2)C2CC2)c1F [I.3]	98	98	100	–	–	–	–	–	–	4.06	–	86	100	99	100	–
Cn1cc(C(=O)N(Cc2ccccc2C2=CCCC2)C2CC2)c(C(F)F)n1 [I.2]	88	94	94	–	–	–	–	–	–	3.63	100	–	100	–	–	–
Cn1nc(C(F)F)c(C(=S)N(Cc2cc(Cl)ccc2C2=CCCCC2)C2CC2)c1F [I.43]	97	78	80	71	–	–	–	–	–	5.56	–	–	89	–	–	–
Cn1nc(C(F)F)c(C(=O)N(Cc2ccccc2C2=CCCC2)C2CC2)c1Cl [I.4]	–	100	–	–	–	–	–	–	–	4.26	77	–	99	–	–	–
Cn1cc(C(=O)N(Cc2ccccc2C2=CCCCC2)C2CC2)c(C(F)F)n1 [I.27]	94	88	98	–	–	–	–	–	–	3.99	100	–	98	24	98	–
Cn1cc(C(=O)N(Cc2ccccc2C2=CCCCCC2)C2CC2)c(C(F)F)c1 [I.50]	100	81	100	–	–	–	–	–	–	4.93	98	–	99	–	–	–
Cn1cc(C(=O)N(Cc2ccccc2C2=CCCCC2)C2CC2)c(C(F)F)c1 [I.30]	–	–	83	–	–	–	–	–	–	4.46	81	–	78	–	–	–
Cn1nc(C(F)F)c(C(=O)N(Cc2cc(F)ccc2C2=CCCCC2)C2CC2)c1Cl [I.44, 5-chloro-N-[2-(cyclohex-1-en-1-yl)-5-fluorobenzyl]-N-cyclopropyl-3-(difluoromethyl)-1-methyl-1H-pyrazole-4-carboxamide]	79	81	–	–	–	–	–	–	–	–	–	–	–	–	–	4.69
CC(c1cc(F)ccc1C1=CCCC1)N(C(=O)c1c(C(F)F)nn(C)c1F)C1CC1 (stereo not drawn) [I.25, N-{1-[2-(cyclopent-1-en-1-yl)-5-fluorophenyl]ethyl}-N-cyclopropyl-3-(difluoromethyl)-5-fluoro-1-methyl-1H-pyrazole-4-carboxamide]	100	–	100	100	–	–	–	–	–	–	100	–	–	–	–	4.34
Cn1nc(C(F)F)c(C(=O)N(Cc2ccccc2C2=CCCCCC2)C2CC2)c1F [I.53]	100	98	100	79	–	–	–	–	–	4.85	100	–	100	–	–	–
Cn1nc(C(F)F)c(C(=O)N(Cc2ccccc2C2=CCCCCC2)C2CC2)c1Cl [I.51]	81	88	83	–	–	–	–	–	–	5.06	–	–	96	–	–	–
Cn1cc(C(=O)N(Cc2ccccc2C2=CCCCCC2)C2CC2)c(C(F)F)n1 [I.49]	88	81	100	79	–	–	–	–	–	4.44	100	–	99	–	–	–
Cn1nc(C(F)F)c(C(=O)N(Cc2cc(C3=CCCC3)ccc2C2=CCCC2)C2CC2)c1F [I.18]	–	–	–	–	–	–	–	–	–	5.62	100	–	–	–	–	–
Cn1nc(C(F)F)c(C(=O)N(Cc2ccccc2C2=CCCCC2)C2CC2)c1F [I.28]	94	100	100	79	–	–	–	–	–	4.49	100	–	100	98	100	–
CC1CC=C(c2ccc(Cl)cc2CN(C(=O)c2c(C(F)F)nn(C)c2F)C2CC2)CC1 (racemic) [I.46]	86	75	100	–	–	–	–	–	–	5.36	–	–	–	–	–	–
